Assay results from ChEMBL document CHEMBL5226390, “Synthesis and Structure-Activity Analysis of Icaritin Derivatives as Potential Tumor Growth Inhibitors of Hepatocellular Carcinoma Cells” (J Nat Prod, 2023).

What was measured:
[1] = Solubility of the compound in water incubated for 24 hrs under stirring conditions by HPLC analysis; assay type: physicochemical
HepG2 = assay: Antiproliferative activity against human HepG2 cells assessed as reduction in cell viability incubated for 48 hrs by MTT assay; assay type: functional, cell-based; details: HepG2, 48 h
SMMC-7721 = assay: Antiproliferative activity against human SMMC-7721 cells assessed as reduction in cell viability incubated for 48 hrs by MTT assay; assay type: functional, cell-based; details: Homo sapiens, SMMC-7721, 48 h; read-out: IC50
Hep 3B2 = assay: Antiproliferative activity against human Hep3B cells assessed as reduction in cell viability incubated for 48 hrs by MTT assay; assay type: functional, cell-based

SMILES | solubility at 24 h [1] | IC50 (HepG2) | IC50 (SMMC-7721) | IC50 (Hep 3B2)
COc1ccc(-c2oc3c(CC=C(C)C)c(O)cc(O)c3c(=O)c2O)cc1 [ICARITIN] | < 10 µg/mL | > 10 µM | > 10 µM | 0.9 µM
COc1ccc(-c2oc3c(CC=C(C)C)c(OCCCCN4CCC(N5CCCCC5)CC4)cc(O)c3c(=O)c2O[C@H]2O[C@H](C)[C@@H](O)[C@H](O)[C@@H]2O)cc1 | – | 7.6 µM | 6.4 µM | 3.9 µM
COc1ccc(-c2oc3c(CC=C(C)C)c(OCCCN4CCOCC4)cc(O)c3c(=O)c2O[C@H]2O[C@H](C)[C@@H](O)[C@H](O)[C@@H]2O)cc1 | – | 7.4 µM | > 10 µM | 8 µM
